Measured values from the OligoGym collection.
HELM strings list units from the 5' end as sugar, base in round brackets, then linkage (d deoxyribose, r ribose, m 2'-O-methyl, p phosphodiester). Strings are as the collection lists them; they lack the last nucleoside at the 3' end of the tested compound. [moe] = 2'-O-(2-methoxyethyl) (MOE); [sp] = phosphorothioate linkage; [m5C] = 5-methylcytosine

target: UBE3A-ATS; assay: mouse, dose not given; settings: ASO

Row | Substance | 3 h FOB score
1 | RNA1{[moe](A)[sp].[moe]([m5C])p.[moe](T)p.[moe](G)p.[moe]([m5C])p.[moe](T)p.d(T)[sp].d([m5C])[sp].d(A)[sp].d([m5C])[sp].d([m5C])[sp].d(A)[sp].d(T)[sp].d(T)[sp].d(T)[sp].d(T)[sp].[moe](G)p.[moe](A)[sp].[moe]([m5C])}$$$$ (last 3' nucleoside missing) | 1 score 0-7
2 | RNA1{[moe](A)[sp].[moe]([m5C])p.[moe](T)p.[moe](G)p.[moe]([m5C])p.d(T)[sp].d(T)[sp].d([m5C])[sp].d(A)[sp].d([m5C])[sp].d([m5C])[sp].d(A)[sp].d(T)[sp].d(T)[sp].d(T)[sp].[moe](T)p.[moe](G)p.[moe](A)[sp].[moe]([m5C])}$$$$ (last 3' nucleoside missing) | 1.7 score 0-7
3 | RNA1{[moe](A)[sp].[moe]([m5C])p.[moe](T)p.[moe](G)p.d([m5C])[sp].d(T)[sp].d(T)[sp].d([m5C])[sp].d(A)[sp].d([m5C])[sp].d([m5C])[sp].d(A)[sp].d(T)[sp].d(T)[sp].[moe](T)p.[moe](T)p.[moe](G)p.[moe](A)[sp].[moe]([m5C])}$$$$ (last 3' nucleoside missing) | 1 score 0-7
4 | RNA1{[moe](A)[sp].[moe]([m5C])p.[moe](T)p.[moe](T)p.[moe](T)p.d(A)[sp].d(T)[sp].d(A)[sp].d(G)[sp].d(T)[sp].d(G)[sp].d(T)[sp].d(G)[sp].d(G)[sp].d(A)[sp].[moe](T)p.[moe](G)p.[moe](G)[sp].[moe](T)}$$$$ (last 3' nucleoside missing) | 6.8 score 0-7
5 | RNA1{[moe](A)[sp].[moe]([m5C])p.[moe](T)p.[moe](T)p.[moe](T)p.d([m5C])[sp].d(A)[sp].d(T)[sp].d([m5C])[sp].d(A)[sp].d(G)[sp].d(T)[sp].d(T)[sp].d(A)[sp].d(G)[sp].[moe](T)p.[moe]([m5C])p.[moe](A)[sp].[moe](G)}$$$$ (last 3' nucleoside missing) | 5.2 score 0-7
6 | RNA1{[moe](A)[sp].[moe]([m5C])p.[moe](T)p.[moe](T)p.[moe]([m5C])p.d(A)[sp].d(T)[sp].d([m5C])[sp].d(A)[sp].d(A)[sp].d(T)[sp].d(A)[sp].d(T)[sp].d(T)[sp].d(T)[sp].[moe]([m5C])p.[moe]([m5C])p.[moe]([m5C])[sp].[moe]([m5C])}$$$$ (last 3' nucleoside missing) | 0 score 0-7
7 | RNA1{[moe](A)[sp].[moe]([m5C])p.[moe](T)p.[moe](T)p.[moe]([m5C])p.d(T)[sp].d([m5C])[sp].d(A)[sp].d(T)[sp].d(T)[sp].d([m5C])[sp].d(T)[sp].d([m5C])[sp].d(T)[sp].d([m5C])[sp].[moe]([m5C])p.[moe](A)p.[moe]([m5C])[sp].[moe]([m5C])}$$$$ (last 3' nucleoside missing) | 0 score 0-7
8 | RNA1{[moe](A)[sp].[moe]([m5C])p.[moe](T)p.[moe]([m5C])p.[moe](A)p.d(T)[sp].d([m5C])[sp].d(A)[sp].d(T)[sp].d(G)[sp].d(A)[sp].d(T)[sp].d([m5C])[sp].d(T)[sp].d(T)[sp].[moe](G)p.[moe](G)p.[moe](T)[sp].[moe](A)}$$$$ (last 3' nucleoside missing) | 3 score 0-7
9 | RNA1{[moe](A)[sp].[moe]([m5C])p.[moe]([m5C])p.[moe](A)p.[moe](T)p.d(T)[sp].d(T)[sp].d(T)[sp].d(G)[sp].d(A)[sp].d([m5C])[sp].d([m5C])[sp].d(T)[sp].d(T)[sp].d([m5C])[sp].[moe](T)p.[moe](T)p.[moe](A)[sp].[moe](G)}$$$$ (last 3' nucleoside missing) | 0 score 0-7
10 | RNA1{[moe](A)[sp].[moe]([m5C])p.[moe]([m5C])p.[moe]([m5C])p.[moe]([m5C])p.d(T)[sp].d(A)[sp].d(G)[sp].d(G)[sp].d(A)[sp].d(A)[sp].d(T)[sp].d(A)[sp].d(A)[sp].d(T)[sp].[moe](G)p.[moe](T)p.[moe](T)[sp].[moe](G)}$$$$ (last 3' nucleoside missing) | 2 score 0-7
11 | RNA1{[moe](G)[sp].[moe](A)p.[moe](A)p.[moe](A)p.[moe]([m5C])p.d([m5C])[sp].d(A)[sp].d(G)[sp].d([m5C])[sp].d([m5C])[sp].d(A)[sp].d(G)[sp].d(G)[sp].d(T)[sp].d(G)[sp].[moe](T)p.[moe]([m5C])p.[moe](T)[sp].[moe](T)}$$$$ (last 3' nucleoside missing) | 3 score 0-7
12 | RNA1{[moe](G)[sp].[moe](A)p.[moe](A)p.[moe]([m5C])p.[moe](T)p.d(A)[sp].d(T)[sp].d([m5C])[sp].d([m5C])[sp].d(T)[sp].d(G)[sp].d([m5C])[sp].d(A)[sp].d(T)[sp].d([m5C])[sp].[moe]([m5C])p.[moe](G)p.[moe](A)[sp].[moe](G)}$$$$ (last 3' nucleoside missing) | 4.2 score 0-7
13 | RNA1{[moe](G)[sp].[moe](A)p.[moe](G)p.[moe](A)p.[moe](A)p.d([m5C])[sp].d([m5C])[sp].d([m5C])[sp].d(A)[sp].d([m5C])[sp].d(T)[sp].d(T)[sp].d(G)[sp].d(A)[sp].d(T)[sp].[moe]([m5C])p.[moe](T)p.[moe](A)[sp].[moe](T)}$$$$ (last 3' nucleoside missing) | 3 score 0-7
14 | RNA1{[moe](G)[sp].[moe](A)p.[moe](G)p.[moe](A)p.[moe](T)p.d(A)[sp].d(G)[sp].d(A)[sp].d(A)[sp].d([m5C])[sp].d(A)[sp].d([m5C])[sp].d(T)[sp].d(T)[sp].d([m5C])[sp].[moe](G)p.[moe]([m5C])p.[moe]([m5C])[sp].[moe](G)}$$$$ (last 3' nucleoside missing) | 5 score 0-7
15 | RNA1{[moe](G)[sp].[moe](A)p.[moe](G)p.[moe](A)p.[moe]([m5C])p.d(A)[sp].d(T)[sp].d(G)[sp].d(T)[sp].d(G)[sp].d([m5C])[sp].d([m5C])[sp].d(A)[sp].d(G)[sp].d(T)[sp].[moe](T)p.[moe]([m5C])p.[moe](A)[sp].[moe](A)}$$$$ (last 3' nucleoside missing) | 6 score 0-7
16 | RNA1{[moe](G)[sp].[moe](A)p.[moe](G)p.[moe](T)p.[moe](A)p.d(G)[sp].d(T)[sp].d([m5C])[sp].d(T)[sp].d(A)[sp].d(T)[sp].d(T)[sp].d(G)[sp].d(G)[sp].d(T)[sp].[moe](G)p.[moe](T)p.[moe](T)[sp].[moe]([m5C])}$$$$ (last 3' nucleoside missing) | 5.5 score 0-7
17 | RNA1{[moe](G)[sp].[moe](A)p.[moe](G)p.[moe](T)p.[moe](A)p.d(T)[sp].d(A)[sp].d(T)[sp].d(T)[sp].d(A)[sp].d([m5C])[sp].d([m5C])[sp].d(T)[sp].d([m5C])[sp].d([m5C])[sp].[moe](A)p.[moe](G)p.[moe](G)[sp].[moe](T)}$$$$ (last 3' nucleoside missing) | 1 score 0-7
18 | RNA1{[moe](G)[sp].[moe](A)p.[moe](G)p.[moe]([m5C])[sp].d(T)[sp].d(A)[sp].d(T)[sp].d([m5C])[sp].d(T)[sp].d(G)[sp].d(T)[sp].d(A)[sp].[moe]([m5C])p.[moe](A)p.[moe](A)p.[moe](A)[sp].[moe](A)}$$$$ (last 3' nucleoside missing) | 3.3 score 0-7
19 | RNA1{[moe](G)[sp].[moe](A)p.[moe](G)p.[moe]([m5C])p.[moe](A)p.d(T)[sp].d(T)[sp].d(G)[sp].d(G)[sp].d([m5C])[sp].d(T)[sp].d(T)[sp].d([m5C])[sp].d(A)[sp].d(T)[sp].[moe](A)p.[moe](T)p.[moe](T)[sp].[moe](T)}$$$$ (last 3' nucleoside missing) | 1 score 0-7
